Measured values as given in the NIST ThermoML archive (doi:10.1021/je049776w).

Experiments:
[1] = 101.3 kPa, Liquid
[2] = xn = mol fraction of the nth substance listed; details: 101.3 kPa, Liquid

Cc1ccc(C)cc1 [1,4-dimethylbenzene]
[1]
Details	mass density [kg/m3]	viscosity [mPa·s]
298.15 K	856.7	0.6162
303.15 K	852.35	0.5715
313.15 K	843.64	0.508
323.15 K	834.9	0.4599
333.15 K	826.09	0.4298
343.15 K	817.17	0.3783
353.15 K	808.22	0.3382

Cc1ccc(C)cc1 [1,4-dimethylbenzene] + C1CCCCC1
[2]
Details	mass density, 298.15 K [kg/m3]	mass density, 303.15 K [kg/m3]	mass density, 313.15 K [kg/m3]	mass density, 323.15 K [kg/m3]	mass density, 333.15 K [kg/m3]	viscosity, 298.15 K [mPa·s]	viscosity, 303.15 K [mPa·s]	viscosity, 313.15 K [mPa·s]	viscosity, 323.15 K [mPa·s]	viscosity, 333.15 K [mPa·s]
x1 = 0.0809	779.58	774.92	765.5	755.99	746.36	0.8232	0.7475	0.6401	0.5594	0.4874
x1 = 0.1655	786.02	781.39	772.07	762.67	753.14	0.757	0.6992	0.5981	0.526	0.4646
x1 = 0.2537	792.96	788.36	779.14	769.83	760.42	0.7177	0.6524	0.5739	0.5037	0.452
x1 = 0.3457	800.58	796.02	786.88	777.65	768.33	0.6773	0.6311	0.5481	0.4861	0.4338
x1 = 0.4422	808.68	804.15	795.1	785.98	776.74	0.6575	0.6059	0.5313	0.4722	0.423
x1 = 0.5431	817.38	812.89	803.91	794.86	785.72	0.6326	0.5868	0.5185	0.4638	0.4186
x1 = 0.6491	826.54	822.09	813.16	804.19	795.14	0.6219	0.5787	0.5108	0.458	0.4131
x1 = 0.7603	836.16	831.71	822.86	813.98	805	0.6175	0.5726	0.511	0.4569	0.4109
x1 = 0.8771	846.17	841.79	833	824.18	815.3	0.6139	0.5701	0.5052	0.4567	0.4124
x1 = 1	856.7	852.35	843.64	834.9	826.09	0.6162	0.5715	0.508	0.4599	0.4298

CN1CCCC1=O [N-methylpyrrolidone]
[1]
Details	mass density [kg/m3]	viscosity [mPa·s]
303.15 K	1023.47	1.554
313.15 K	1014.55	1.332
323.15 K	1005.66	1.16
333.15 K	996.71	1.022
343.15 K	987.75	0.9084
353.15 K	978.76	0.8127

CN1CCCC1=O [N-methylpyrrolidone] + Cc1ccc(C)cc1
[2], x2 = 0
Details	mass density [kg/m3]	viscosity [mPa·s]
303.15 K	1023.47	1.554
313.15 K	1014.55	1.332
323.15 K	1005.66	1.16
333.15 K	996.71	1.022
343.15 K	987.75	0.9084
353.15 K	978.76	0.8127

C1CCCCC1 [cyclohexane]
[1]
Details	mass density [kg/m3]	viscosity [mPa·s]
298.15 K	773.82	0.9027
303.15 K	769.1	0.8205
313.15 K	759.61	0.6963
323.15 K	749.98	0.5984
333.15 K	740.23	0.5195

C1CCCCC1 [cyclohexane] + Cc1ccc(C)cc1
[2], x2 = 0
Details	mass density [kg/m3]	viscosity [mPa·s]
298.15 K	773.82	0.9027
303.15 K	769.1	0.8205
313.15 K	759.61	0.6963
323.15 K	749.98	0.5984
333.15 K	740.23	0.5195

CCCCCCC [heptane]
[1]
Details	mass density [kg/m3]	viscosity [mPa·s]
298.15 K	679.9	0.4009
303.15 K	675.65	0.375
313.15 K	667.08	0.3373
323.15 K	658.37	0.3074
333.15 K	649.53	0.2793
343.15 K	640.47	0.2541

CCCCCCC [heptane] + Cc1ccc(C)cc1
[2], x2 = 0
Details	mass density [kg/m3]	viscosity [mPa·s]
298.15 K	679.9	0.4009
303.15 K	675.65	0.375
313.15 K	667.08	0.3373
323.15 K	658.37	0.3074
333.15 K	649.53	0.2793
343.15 K	640.47	0.2541

CCCCCCCC [octane]
[1]
Details	mass density [kg/m3]	viscosity [mPa·s]
298.15 K	699.9	0.5206
303.15 K	695.72	0.4837
313.15 K	687.5	0.4306
323.15 K	679.37	0.3864
333.15 K	671.02	0.3495
343.15 K	662.54	0.3139
353.15 K	653.8	0.284

CCCCCCCC [octane] + Cc1ccc(C)cc1
[2], x2 = 0
Details	mass density [kg/m3]	viscosity [mPa·s]
298.15 K	699.9	0.5206
303.15 K	695.72	0.4837
313.15 K	687.5	0.4306
323.15 K	679.37	0.3864
333.15 K	671.02	0.3495
343.15 K	662.54	0.3139
353.15 K	653.8	0.284
